# “Also recorded” adds a separate entry of the source. Read-outs that look alike come from different tables or passages of the source.
# B1: heparinase I: enzyme that cleaves heparan sulfate GAG chains (Sigma Aldrich/H2519) (protein, UniProt Q05819 22-384, looked up)
# Heparin lyase I: QQKKSGNIPYRVNVQADSAKQKAIIDNKWVAVGINKPYALQYDDKLRFNGKPSYRFELKAEDNSLEGYAAGETKGRTELSYSYATTNDFKKFPPSVYQNAQKLKTVYHYGKGICEQGSSRSYTFSVYIPSSFPDNATTIFAQWHGAPSRTLVATPEGEIKTLSIEEFLALYDRMIFKKNIAHDKVEKKDKDGKITYVAGKPNGWKVEQGGYPTLAFGFSKGYFYIKANSDRQWLTDKADRNNANPENSEVMKPYSSEYKTSTIAYKMPFAQFPKDCWITFDVAIDWTKYGKEANTILKPGKLDVMMTYTKNKKPQKAHIVNQQEILIGRNDDDGYYFKFGIYRVGNSTVPVTYNLSGYSETAR
# B2: mAb 8HA: rat monoclonal antibody against the HSPG binding domain; VH SEQ ID NO: 9, VK SEQ ID NO: 3 (antibody, V domains shown)
# VH: QVTLKESGPGILQPSQTLSLTCSFSGFSLSSSGICVSWIRQPSGKGLEWLATICWEDSKGYNPSLKNRLTISKDTSNNQALLRITSVDTADTAIYYCARVYYWYFDFWGPGTMVTVSS
# VL: DIVMTQSPSLLSASVGDRVTLSCKGSQNINNYLAWYQQKLGEAPKLLIYNTNSLQTGIPSRFSGSGSGTDCTLTIRSLQPEDVATYFCYQYNNGNTFGGGTKLELK
# Tests used:
# LDLR in HepG2 cells [1] = test: LDLR levels in HepG2 cells by Western blot/densitometry (PCSK9 induced LDLR degradation)
# Protocol: (§2) Purified PCSK9 variants were tested in a cell assay to test their ability to induce degradation of LDLR compared to wild-type PCSK9. Induction of LDLR degradation was analyzed by incubation of HepG2 cells with wild type PCSK9 (WT) or the above PCSK9 mutants and LDLR levels were assessed by Western blotting. HepG2 cells were seeded at a density 250.000 cells per well in 12-well plates. […] Cells were harvested and lysed following 18 hours incubation and LDLR levels were assessed by Western blotting and quantification by densitometry.
# The PCSK9 inhibitory effect of overnight incubation with suramin (0-200 μg/ml) was tested in HepG2 cells (FIG. 9 A-B).
# apoE−/− mice = conditions: 4-week treatment, cited from earlier work
# J774 macrophages = tested on: J774 macrophages; parameters: dose or concentration left out as unconfirmed; conditions: cited from earlier work
# PCSK9 = PCSK9 (Homo sapiens, UniProt Q8NBP7); test: Microscale Thermophoresis (MST) equilibrium binding to PCSK9; conditions: 100 nM labelled PCSK9, PBS+0.05% Tween-20; for Kd: read-out: KD (affinity for PCSK9, MST)
# PCSK9, sequence (Q8NBP7 153-692): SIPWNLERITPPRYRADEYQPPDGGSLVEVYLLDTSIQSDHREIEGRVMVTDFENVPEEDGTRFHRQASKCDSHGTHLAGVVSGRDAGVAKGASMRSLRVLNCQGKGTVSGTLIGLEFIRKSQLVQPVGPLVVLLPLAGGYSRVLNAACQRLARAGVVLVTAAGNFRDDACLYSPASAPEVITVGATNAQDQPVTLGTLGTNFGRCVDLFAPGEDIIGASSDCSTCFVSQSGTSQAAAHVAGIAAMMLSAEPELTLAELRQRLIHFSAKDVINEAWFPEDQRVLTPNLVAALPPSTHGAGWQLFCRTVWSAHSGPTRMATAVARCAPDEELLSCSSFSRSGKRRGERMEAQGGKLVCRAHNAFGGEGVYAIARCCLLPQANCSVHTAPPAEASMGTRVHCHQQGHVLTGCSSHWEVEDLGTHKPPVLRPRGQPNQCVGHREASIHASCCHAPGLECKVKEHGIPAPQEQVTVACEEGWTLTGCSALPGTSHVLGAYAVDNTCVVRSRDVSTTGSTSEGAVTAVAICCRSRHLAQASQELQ
# Protocol: PCSK9 was labeled using the MO-L003 Monolith Blue-NHS labeling kit (NanoTemper Technologies) and a labeling efficiency of 1:1 molar ratio of protein to dye was achieved. PCSK9 was applied at a final concentration of 100 nM. […] MST measurements were performed in standard-treated capillaries (NanoTemper Technologies) on a Monolith NT.115 instrument (NanoTemper Technologies) using 20% LED and 80% MST power. Laser on and off times were 5 s and 35 s, respectively. Negative controls were performed using 100 nM of labelled PCSK9 in MST buffer in all 16 capillaries under the same conditions as mentioned above. […] For each binding partner, the sigmoidal dose-response curves were fitted with GraphPad Prism 6 to yield an average KD value.
# HepG2 cells = test: uptake of Bodipy-labelled LDL particles in HepG2 cells; format: cell-based, human; conditions: suramin 200 μg/ml overnight, then 4 hours 10 ng/ml Bodipy LDL
# Protocol: FIG. 12: Bar graphs showing the relative fluorescence signal in HepG2 cells after overnight incubation with suramin (200 μg/ml) following 4 hours incubation with 10 ng/ml LDL particles labeled with fluorescence dye Bodipy.
# LDLR in liver = test: liver LDLR levels in mice after intravenous PCSK9 (Western blot); format: in vivo, mice (BALB6/cJRj); conditions: for liver LDLR level / PCSK9 induced degradation of LDLR in vivo: 1 hour after PCSK9 10 μg, heparin 50 U or suramin 300 μg co-injected, heparinase I 30 U infused before
# Protocol: To test the effect of enzymatic removal of heparan sulfate GAGs on PCSK9 activity in vivo 10-12 week-old male BALB6/cJRj mice were infused with heparinase I (30 U) administered through a tail vein catheter 5 min prior injection of PCSK9 (10 μg). In control mice the heparinase injection and/or the PCSK9 injection were replaced with an injection of 0.9% saline. During heparinase infusion, mice were lightly anaesthetized with isoflurane continuously administered through a mask.
# Mice (BALB6/cJRj) were subjected to a single intravenous administration (tail vein) of 10 μg human recombinant PCSK9 alone or in combination with heparin (50 U). One hour post injection mice were sacrificed and liver tissues were collected.
# [2] = heparin affinity chromatography of PCSK9 and variants; format: binding; conditions: conditioned media, Heparin Sepharose CL-6B beads
# Protocol: Purified PCSK9 was loaded onto a 5 ml HiTrap Heparin HP column (GE Healthcare) in PBS. The column was connected to an Äkta Prime and washed with 5 column volumes of 10 mM NaH2PO4 (pH 7.4). PCSK9 was eluted using a linear gradient of 10 mM NaH2PO4 (pH 7.4) and 2 M NaCl and fractions were analyzed by SDS-PAGE. Based on the measured conductivity, the elution profile was transformed to a function of NaCl concentration using the transformation coefficient 0.065 mS/mM NaCl. PCSK9 was retained on the heparin column and eluted at a NaCl concentration of approximately 500 mM (FIG. 2E), indicating a strong and highly specific interaction with heparin.
# (§1) In a different experiment, conditioned media from HepG2 cells were incubated with Heparin Sepharose CL-6B beads (GE Healthcare) in 10 mM NaH2PO4 (binding buffer). Following overnight incubation on a rotor at 4⊐ C, beads were washed in binding buffer before batch elution of heparin bound proteins in increasing concentration of NaCl. PCSK9 in input, flow through, and elution fractions were evaluated by Western blotting.
# as §1, with “Conditioned” for “In a different experiment, conditioned”, “CHO” for “HepG2”, “cells transfected with PCSK9 variants of interest” for “cells”, “4° C.,” for “4⊐ C,”
# LDLR in HepG2 cells [3] = test: LDLR degradation in HepG2 cells induced by PCSK9 WT or mutant; format: cell-based, human; conditions: 10 nM PCSK9, 18 hours
# Protocol: as §2
# [4] = tested on: cell surface PCSK9 on HepG2 cells; test: surface PCSK9 immunostaining of non-permeabilized HepG2 cells stably expressing PCSK9; format: cell-based, human; conditions: heparinase I 0.0002 UN/ml, 1 h
# Protocol: We speculated that HSPG might be involved in the capture of PCSK9. Thus, we treated human hepatocyte-derived HepG2 cells stably expressing PCSK9 with heparinase I. The enzyme heparinase I cleaves heparan sulfate GAG chains at the 1,4 O-linkage between uronic acid and D-glucosamine, thereby removing cell surface heparan sulfate chains.
# HepG2 cells stably transfected with PCSK9 were seeded at 50.000 cells per coverslip and incubated overnight before addition of heparinase I (Sigma Aldrich/H2519) in PBS (0.0002 UN/ml) or PBS alone. Cells were incubated for 1 h. at 37⊐ C, before fixation in 4% paraformaldehyd and immunostaining of non-permeabilized cells with primary and secondary antibodies. Nuclei were visualized with Hoechst dye (Sigma Aldrich). Images were acquired on a Zeiss LSM780.
# [5] = molecular target: T1, R93R96R97R104R105H139 PCSK9 mutant and variants (Homo sapiens, UniProt Q8NBP7, H139A/R104A/R105A/R93A/R96A/R97A); test: immunoprecipitation of 35S-mutant PCSK9 and PCSK9 variants; format: binding; conditions: 500 μl conditioned hybridoma media
# T1 construct: expressed in transfected cells
# Protocol: Western blot of GAPDH is shown as loading control. (B) Western Blot showing LDLR levels in liver of mice 1 hour afterintravenous administration of 10 μg PCSK9 alone or in combination with 50 U Heparin. 50 μg membrane preparations were loaded. As control is shown Western Blot for sortilin, a PCSK9 receptor previously shown not to be target of PCSK9 induced degradation. (C) Quantification of B) Bands were quantified by densitometry and dot plot show the individual level of each sample in percent of vehicle (0.9% NaCl) injected controls with mean values and SEM. […] (D) Autoradiography (16 h exposure) showing immunoprecipitation of native human ^35S labeled PCSK9 by serum (1 μl) from three rats immunized with DNA encoding rat PCSK9 with human HSPG binding domain. As negative controls were used preimmune serum from the animals. (E) Western Blot showing LDLR in HepG2 cells after overnight incubation with preimmune or immune IgG (1 μg/ml). […] (F) Autoradiography (16 h exposure) showing immunoprecipitation of human ^35S-PCSK9 by 24 individual mAbs (500 μl conditioned hybridoma media) selected in ELISA screening performed by Aldevron. […] (G) Bar graphs showing LDLR levels (average of 2-4 experiments with SEM) in HepG2 cells incubated with mAbs (1:10 dilution of conditioned hybridoma media) as analysed by Western Blot. Twelve individual mAb clones give an approximately two-fold increase LDLR. (H) Autoradiography (16 h exposure) showing immunoprecipitation of human ^35S-mutant PCSK9 (with R93R96R97R104R105H139 mutated to alanine residues) by 12 individual mAbs (500 μl conditioned hybridoma media) all showing PCSK9 inhibitory effect. As control was used a polyclonal antibody (pAb, AF3888 from R&D systems). […] As control was used R&D Systems AF3888 (pAb).
# These 12 clones were tested to see whether they can bind an R93R96R97R104R105H139 PCSK9 mutant (FIG. 8H).
# [6] = suramin 50 and PPADS 25 mg·kg-1·day-1
molecule,measurement,setting,value
"CO[C@H]1O[C@H](COS(=O)(=O)O)[C@@H](O[C@@H]2O[C@@H](C(=O)O)[C@@H](O[C@H]3O[C@H](COS(=O)(=O)O)[C@@H](O[C@@H]4O[C@H](C(=O)O)[C@@H](O[C@H]5O[C@H](COS(=O)(=O)O)[C@@H](O)[C@H](O)[C@H]5NS(=O)(=O)O)[C@H](O)[C@H]4O)[C@H](OS(=O)(=O)O)[C@H]3NS(=O)(=O)O)[C@H](O)[C@H]2OS(=O)(=O)O)[C@H](O)[C@H]1NS(=O)(=O)O [Arixtra, Fondaparinux]",LDLR level in HepG2 cells,"LDLR in HepG2 cells [1]; Arixtra 25-250 μg/ml, 24 h",elevated level of LDLR
same,LDLR level in HepG2 cells,"LDLR in HepG2 cells [1]; Arixtra 25-250 μg/ml, 24 h, listed as Fondaparinux",increased levels of LDLR
"Cc1nc(N=Nc2ccc(S(=O)(=O)O)cc2S(=O)(=O)O)c(COP(=O)(O)O)c(C=O)c1O [PPADS, pyridoxal-phosphate-6-azophenyl-2′-4′-disulphonic acid]",plaque size,"apoE−/− mice; suramin 50 and PPADS 25 mg·kg-1·day-1, listed as PPDAS",reduce plaque size
same,plaque size,apoE−/− mice; [6],reduces plaque size
same,block of UDP effect on iNOS and interleukin-6,J774 macrophages,blocked
Cc1ccc(C(=O)Nc2ccc(S(=O)(=O)O)c3cc(S(=O)(=O)O)cc(S(=O)(=O)O)c23)cc1NC(=O)c1cccc(NC(=O)Nc2cccc(C(=O)Nc3cc(C(=O)Nc4ccc(S(=O)(=O)O)c5cc(S(=O)(=O)O)cc(S(=O)(=O)O)c45)ccc3C)c2)c1 [suramin],plaque size,"apoE−/− mice; suramin 50 and PPADS 25 mg·kg-1·day-1, listed as Suramin",reduce plaque size
same,plaque size,apoE−/− mice; [6],reduces plaque size
same,block of UDP effect on iNOS and interleukin-6,J774 macrophages,blocked
same,Kd,PCSK9,190 µM
same,uptake of fluorescently labelled LDL,HepG2 cells,increased cellular uptake of fluorescently labelled LDL particles; also recorded: increases the uptake of LDL two-fold
same,LDLR level compared with statins,"LDLR in HepG2 cells [1]; 100 μM suramin vs mevastatin and simvastatin, 24 and 48 hours",higher level of LDLR that cells incubated with statins
same,LDLR level up regulated,"LDLR in HepG2 cells [1]; suramin 200 μg/ml, overnight",15 times
same,liver LDLR level / PCSK9 induced degradation of LDLR in vivo,LDLR in liver,significantly higher level of LDLR
Mutant R93: PCSK9 alanine substitution variant,binding to heparin (affinity chromatography),[2],less affinity for heparin
Mutant R93R104R105H139A: PCSK9 alanine substitution variant,binding to heparin (affinity chromatography),[2],do not bind heparin; also recorded: did not bind to heparin
WT PCSK9: wild type human PCSK9 (SEQ ID NO: 1),binding to heparin (affinity chromatography),[2],bound heparin Sepharose
same,LDLR levels in HepG2 cells incubated with PCSK9 variant,LDLR in HepG2 cells [3],significantly lower levels of LDLR
same,LDLR level in liver in percent of vehicle injected controls,"LDLR in liver; 1 hour after intravenous 10 μg PCSK9 alone or with 50 U Heparin, n=7 mice/group",24.0±4.04%
dextran [non-sulfated dextran],"KD (affinity for PCSK9, MST)",PCSK9,no affinity
dextran sulphate [dextran sulfate],Kd,PCSK9,180 µM
same,LDLR level in HepG2 cells,"LDLR in HepG2 cells [1]; dextran sulphate 0-200 μg/ml, 24 hour",concentration dependent increase of LDLR
same,LDLR level in HepG2 cells,"LDLR in HepG2 cells [1]; dextran sulphate 0-200 μg/ml, 24 hour, listed as dextran sulphate",potently increase the cellular level of LDLR
same,plateau of cellular LDLR compared to vehicle control,"LDLR in HepG2 cells [1]; dose-dependent, HepG2 cells",around 400%
B1,intensity of surface PCSK9 staining,[4],marked decrease in the intensity of surface PCSK9 staining
same,liver LDLR level / PCSK9 induced degradation of LDLR in vivo,LDLR in liver,completely protected LDLR from PCSK9-induced degradation; also recorded: completely inhibits PCSK9 induced degradation of LDLR
B2,increase of cellular LDLR,"LDLR in HepG2 cells [1]; mAbs, 1:10 dilution of conditioned hybridoma media",approximately two fold
same,binding of R93R96R97R104R105H139 PCSK9 mutant (immunoprecipitation),[5],not able to bind this mutant

# Reference: patent publication US10688119B2, “Inhibitors of PCSK9 for treatment of lipoprotein metabolism disorders” (Aarhus Universitet, priority 2015, dated 2020)
